Data as given in the METLIN SMRT retention time set (Domingo-Almenara et al. 2019).

Assay: gradient 5% acetonitrile 3 min, to 50% in 2 min, to 85% in 15 min, held 3 min, 100 µL/min
Settings: column: Zorbax Extend-C18 2.1 x 50 mm; eluents: water / acetonitrile, 0.1% formic acid
Procedure, shortened: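 Retention time was recorded from adduct peaks, which were picked computationally and each inspected manually. Pure standards ran in mixtures of ~100 molecules on HPLC coupled to a quadrupole time-of-flight mass spectrometer, in positive and negative ionization mode, through a Zorbax Extend-C18 column (2.1 × 50 mm, 1.8 μm) at 100 μL/min. Eluents were water and acetonitrile, each with 0.1% formic acid.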

| RP-LC retention time [s] | SMILES |
| --- | --- |
| 1020 | COc1ccc(-c2nc(-c3cccc(-c4ccnn4C)c3)no2)cc1OC |
| 682 | CN(C(=O)CC(=O)Nc1ccc2nc3n(c(=O)c2c1)CCCCC3)c1ccccc1F |
| 954 | CCn1cc(-c2nc(CC(=O)N3CCc4ccccc43)cs2)c2cccnc21 |
| 837 | Cc1noc(/C=C\c2ccc(S(=O)(=O)N3CCCC3)cc2)c1NC(=O)C1CC1 |
| 1060 | Cc1ccccc1NC(=O)C1CCN(S(=O)(=O)c2cc(-c3noc(C4CCC4)n3)cs2)CC1 |
| 718 | CCCC(=O)NCCn1c(=O)n(Cc2ccccc2)c2cccnc21 |
| 826 | CC(=O)c1c(C)n(CC(=O)NCc2cc3c(cc2C)OCCCO3)c2ccccc12 |
| 1040 | C=C[C@@]1(C)CC(=O)[C@]2(O)[C@@]3(C)[C@H](O)CCC(C)(C)[C@@H]3[C@H](O)[C@H](OC(C)=O)[C@@]2(C)O1 |
| 876 | COc1ccc(C(=O)N2CCCC2c2nc(-c3ccc(OC)c(OC)c3)no2)cc1F (stereo unspecified) |
| 1170 | COc1ccc(Nc2nc(N3CCN(c4ccccc4OC)CC3)nc3c2C(=O)CCC3)cc1 |
| 1200 | COc1ccc(Cl)cc1NC(=O)C(C)Oc1cc(C(F)(F)F)c2c(C)nn(C)c2n1 (stereo unspecified) |
| 649 | O=C(Cn1cnc2nc(N3CCC(C(=O)NC4CC4)CC3)sc2c1=O)NC1CCCCC1 |
| 1210 | CCc1ccc(-c2noc(Cn3c(=O)n(Cc4ccccc4)c(=O)c4sccc43)n2)cc1 |
| 923 | Cc1nc(-c2cccs2)c(CCC(=O)Nc2ccccc2C(F)(F)F)s1 |
| 586 | COc1ccc(-c2noc(Cn3ccnc3)n2)cc1OC |
| 752 | CCc1noc(-c2cnc3nc(C)ccc3c2NCc2ccc(OC)cc2OC)n1 |
| 1150 | Cc1ccc(N2CC(c3noc(-c4ccc(C)c(C)c4)n3)CC2=O)cc1 (stereo unspecified) |
| 628 | O=C([C@@H]1C[C@H](F)CN1C(=O)Nc1cccc(F)c1)N1CCOCC1 |
| 631 | O=C(c1ccc(Br)o1)N1CCC(n2cnnc2C2CC2)CC1 |
| 583 | O=C(CN1C(=O)c2ccccc2Sc2ncccc21)N1CCC(N2CCCCC2)CC1 |
| 934 | CCCc1nc(-c2c(C)cc(C)nc2NC(=O)c2ccccc2Cl)no1 |
| 681 | CCOc1ccc(NC(=O)N2CCN(c3cc(C)nc(N4CCCC4)n3)CC2)cc1 |

| RP-LC retention time [s] | SMILES |
| --- | --- |
| 1140 | CCC(C)NC(=O)c1c(O)c2cccnc2n(-c2ccc(OC)cc2)c1=O (stereo unspecified) |
| 862 | CCCN1C(=O)Cc2ccccc2C1C(=O)NC1CCCCCC1 (stereo unspecified) |
| 894 | Cc1noc(C)c1-c1ccc(S(=O)(=O)NCc2ccc3c(c2)OCO3)cc1 |
| 796 | CCCOC(=O)C1=CN(C)S(=O)(=O)N=C1C |
| 828 | COc1ccccc1OCC1c2ccsc2CCN1C(=O)CN(CC1CC1)C(C)=O (stereo unspecified) |
| 588 | CCCCOc1ccc(C(=O)NCCc2cn3ccc(C)cc3n2)cc1 |
| 987 | Cc1[nH]c(C(=O)N2CCCC(C(=O)NC(c3cccs3)C(C)C)C2)c(C)c1C(=O)OC(C)C (stereo unspecified) |
| 981 | CCOc1ccccc1-c1csc(NC(=O)c2sc(C)nc2C)n1 |
| 695 | CCCn1c(CCNC(=O)c2ccc(C)c(F)c2)nc2cccnc21 |
| 628 | CC(C(=O)NCCN1CCCCC1)n1c2ccccc2c2cnn(C)c(=O)c21 (stereo unspecified) |
| 734 | Cc1nn(-c2cc(N3CCOCC3)ncn2)c(C)c1CCC(=O)NCCc1ccco1 |
| 662 | Cc1cc(N2CCCC2)n2nc(CN3CCN(c4ccccc4Cl)CC3)nc2n1 |
| 771 | CCOC(=O)c1ccc(NC(=O)Cn2c(=O)n(CC)c(=O)c3c2cc(C)n3C)cc1 |
| 1120 | c1ccc(Cc2nnc3sc(-c4ccc5ccccc5n4)nn23)cc1 |
| 901 | Cc1ccc(S(=O)(=O)N(C)c2ccccc2)s1 |
| 720 | CCOC(=O)c1cnc2nc(C)ccc2c1Nc1cc(OC)cc(OC)c1 |
| 788 | COc1ccc(NC(=O)N(C)CCc2noc(COc3ccccc3)n2)cc1OC |
| 1230 | c1ccc(-c2nc3cc(-c4noc(C5CC5)n4)ccc3o2)cc1 |
| 1210 | CCOc1ccc(-c2csc3c(=O)n(Cc4ccc(Br)cc4)cnc23)cc1OCC |
| 736 | O=C(NCC1(c2cccs2)CC1)c1cnccn1 |
| 978 | Cc1cccc(N(C)S(=O)(=O)c2ccsc2-c2nc(C)no2)c1 |
| 844 | CCc1nnc(-c2cc(C)n(CC(=O)Nc3cc(F)cc(F)c3)c2C)o1 |

| RP-LC retention time [s] | SMILES |
| --- | --- |
| 645 | Cc1noc(CNC(=O)C2CCN(C(=O)CSc3ccc(F)cc3)CC2)n1 |
| 693 | Cc1ccccc1-c1nc2cnccn2c1NCCC(=O)NCc1cc(F)cc(F)c1 |
| 962 | COc1ccc(Cn2c(=O)c3sccc3n(Cc3nc(-c4cccc(OC)c4)no3)c2=O)cc1 |
| 1110 | Cc1csc(-c2cc(S(=O)(=O)NCCc3ccc(Cl)cc3)c(C)s2)n1 |
| 861 | CN(Cc1ccco1)C(=O)C1c2ccccc2CC(=O)N1Cc1ccccc1 (stereo unspecified) |
| 864 | Cc1nc(-c2ccc(N3CCN(C(=O)c4n[nH]c5ccccc45)CC3)nc2)sc1C |
| 704 | COCC(C)NC(=O)C(=O)c1cn(CC(=O)N2CCOCC2)c2ccccc12 (stereo unspecified) |
| 829 | O=C(NCc1ccco1)C1CCN(c2nc3ccsc3c(=O)n2Cc2ccccc2)CC1 |
| 937 | Cc1ccccc1CNC(=O)C1(C)CCCN(C(=O)Nc2cccc(F)c2)C1 (stereo unspecified) |
| 673 | COc1ccc(Cl)cc1C(=O)NCc1c(C)nc2sc(C)nn12 |
| 1030 | Cc1ccc(-c2noc(CN3C(=O)COc4ccccc43)n2)cc1 |
| 868 | CN(CCc1noc(-c2ccc(Cl)cc2)n1)C(=O)NCc1ccco1 |
| 712 | Oc1ccc(-c2ccc(F)cc2)cc1CNC1CCCCC1 |
| 626 | Cn1cc(-c2cc3n(n2)CCC(=O)N3CC(=O)NCc2ccccn2)c2ccccc21 |
| 692 | Cc1ccccc1CNC(=O)c1cn2ccncc2n1 |
| 1010 | COc1ccc2oc(-c3csc(NC(=O)c4c(F)cccc4F)n3)cc2c1 |
| 1350 | CCOc1ccc(-c2nc(NC(=O)Cc3csc(COc4cc(C)ccc4C)n3)sc2C)cc1 |
| 734 | Cc1ccc(Nc2nc(C)cc(N3CCN(C(=O)C4CCCCC4)CC3)n2)cc1 |
| 616 | Cn1c(=O)c(N2CCN(C(=O)c3ccc(F)cc3Cl)CC2)nc2ccncc21 |
| 842 | Cn1cc(-c2ccccc2)cc1C(=O)O |
| 882 | COc1ccccc1N1CCN(Cc2nc(-c3ccc(N4CCC(C)CC4)nc3)no2)CC1 |
| 1110 | COc1cc(NC(=O)Cn2nc(N3CCC(C)CC3)c3ccccc3c2=O)cc(OC)c1 |
